Test results taken from US20240041042A1, “1-(PYRIDYL)-5-AZINYLPYRAZOLE DERIVATIVES, AND THEIR USE FOR CONTROL OF UNDESIRED PLANT GROWTH” (Bayer Aktiengesellschaft, priority 2020, published 2024).

Legend:
Format in all cases: in vivo
[1] = system: Abutilon theophrasti (ABUTH); assay: Pre-emergence herbicidal action against ABUTH; conditions: 100% = plants have died
Summary of the method: (§1)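 Seeds sown in pots and covered with soil; WP or EC formulations sprayed onto the soil surface at 600 l/ha water with 0.5% additive, at 320 g/ha or lower. Greenhouse growth for about 3 weeks, then visual scoring as % effect against untreated controls (100% = plants dead).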

[2] = system: Alopecurus myosuroides (ALOMY); assay: Pre-emergence herbicidal action against ALOMY; conditions: scored visually after about 3 weeks, 100% = plants have died
Summary of the method: as §1

[3] = system: Amaranthus retroflexus (AMARE); assay: Pre-emergence herbicidal action against AMARE; conditions: visual scoring after about 3 weeks vs untreated controls
Summary of the method: as §1

Avena fatua (AVEFA) = assay: Pre-emergence herbicidal action against AVEFA; conditions: 320 g/ha, visual scoring after about 3 weeks vs untreated controls
Summary of the method: as §1

[4] = system: Digitaria sanguinalis (DIGSA); assay: Pre-emergence herbicidal action against DIGSA
Summary of the method: as §1

[5] = system: Echinochloa crus-galli (ECHCG); assay: Pre-emergence herbicidal action against ECHCG
Summary of the method: as §1

Lolium rigidum (LOLRI) [6] = assay: Pre-emergence herbicidal action against LOLRI
Summary of the method: as §1

[7] = system: Matricaria inodora (MATIN); assay: Pre-emergence herbicidal action against MATIN
Summary of the method: as §1

[8] = system: Pharbitis purpurea (PHBPU); assay: Pre-emergence herbicidal action against PHBPU
Summary of the method: as §1

[9] = system: Polygonum convolvulus (POLCO); assay: Pre-emergence herbicidal action against POLCO
Summary of the method: as §1

Setaria viridis (SETVI) [10] = assay: Pre-emergence herbicidal action against SETVI
Summary of the method: as §1

[11] = system: Verconica persica (VERPE); assay: Pre-emergence herbicidal action against VERPE; conditions: dosage 320 g/ha
Summary of the method: as §1

Viola tricolor (VIOTR) [12] = assay: Pre-emergence herbicidal action against VIOTR
Summary of the method: as §1

[13] = system: Abutilon theophrasti (ABUTH); assay: Post-emergence herbicidal action against ABUTH; conditions: 320 g/ha, visual rating about 3 weeks after treatment vs untreated controls (100% = plants have died, 0% = like control plants)
Summary of the method: (§2)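 Values are percent visual activity (0% like control, 100% plants dead) after about 3 weeks in the greenhouse. Treatment: post-emergence spray at one-leaf stage, 600 l/ha spray volume, 0.5% additive, doses 320 g/ha or lower.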

[14] = system: Digitaria sanguinalis (DIGSA); assay: Post-emergence herbicidal action against DIGSA; conditions: 320 g/ha, visual rating about 3 weeks after treatment
Summary of the method: as §2

[15] = system: Echinochloa crus-galli (ECHCG); assay: Post-emergence herbicidal action against ECHCG
Summary of the method: as §2

Lolium rigidum (LOLRI) [16] = assay: Post-emergence herbicidal action against LOLRI; conditions: dosage 320 g/ha
Summary of the method: as §2

[17] = system: Matricaria inodora (MATIN); assay: Post-emergence herbicidal action against MATIN; conditions: dosage 320 g/ha
Summary of the method: as §2

[18] = system: Pharbitis purpurea (PHBPU); assay: Post-emergence herbicidal action against PHBPU
Summary of the method: as §2

Setaria viridis (SETVI) [19] = assay: Post-emergence herbicidal action against SETVI; conditions: dosage 320 g/ha
Summary of the method: as §2

Viola tricolor (VIOTR) [20] = assay: Post-emergence herbicidal action against VIOTR; conditions: 320 g/ha
Summary of the method: as §2

Oryza sativa (ORYSA) = conditions: crop plant compatibility, 80 g/ha, effect in comparison to untreated controls
Summary of the method: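 Greenhouse crops in sandy loam sprayed post-emergence at the one-leaf stage, 2–3 weeks after sowing, with WP or EC formulations in water plus 0.5% additive at 600 l/ha. Damage rated visually about 3 weeks later versus untreated controls (0% = like control, 100% = dead); suffixes a–c denote different doses.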

Post-emergence action against ORYSA in % (Oryza sativa (ORYSA)): 10%
SMILES: C[C@@H](Oc1nn(-c2nc(F)ccc2F)c(-c2cncc(F)c2)c1Cl)C(=O)O [Example I-159]
Pre-emergence action against ABUTH ([1]; 80 g/ha, scored visually after about 3 weeks vs untreated controls, 0% = like control plants): 80%
Pre-emergence action against ABUTH ([1]; Dosage column 320 g/ha (title prints 3200 g/ha), scored visually after about 3 weeks): 80%
Pre-emergence action against ALOMY ([2]; 80 g/ha): 80%
Pre-emergence action against ALOMY ([2]; 320 g/ha): 90%
Pre-emergence action against AMARE in % ([3]; 80 g/ha): 90%
Pre-emergence action against AMARE in % ([3]; 320 g/ha): 100%
Pre-emergence action against AVEFA in % (Avena fatua (AVEFA)): 90%
Pre-emergence action against DIGSA in % ([4]; 80 g/ha, visual scoring after about 3 weeks vs untreated controls): 90%
Pre-emergence action against DIGSA in % ([4]; dosage 320 g/ha): 100%
Pre-emergence action against ECHCG in % ([5]; dosage 80 g/ha): 90%
Pre-emergence action against ECHCG in % ([5]; dosage 320 g/ha): 90%
Pre-emergence action against LOLRI in % (Lolium rigidum (LOLRI) [6]; dosage 80 g/ha): 90%
Pre-emergence action against LOLRI in % (Lolium rigidum (LOLRI) [6]; dosage 320 g/ha): 100%
Pre-emergence action against MATIN in % ([7]; dosage 80 g/ha): 90%
Pre-emergence action against MATIN in % ([7]; dosage 320 g/ha): 90%
Pre-emergence action against PHBPU in % ([8]; dosage 80 g/ha): 80%
Pre-emergence action against PHBPU in % ([8]; dosage 320 g/ha): 90%
Pre-emergence action against POLCO in % ([9]; dosage 80 g/ha): 90%
Pre-emergence action against POLCO in % ([9]; dosage 320 g/ha): 90%
Pre-emergence action against SETVI in % (Setaria viridis (SETVI) [10]; dosage 80 g/ha): 90%
Pre-emergence action against SETVI in % (Setaria viridis (SETVI) [10]; dosage 320 g/ha): 100%
Pre-emergence action against VERPE in % [11]: 100%
Pre-emergence action against VIOTR in % (Viola tricolor (VIOTR) [12]; 320 g/ha, Viola tricolor): 100%
Pre-emergence action against VIOTR in % (Viola tricolor (VIOTR) [12]; dosage 80 g/ha): 100%
Post-emergence action against ABUTH in % [13]: 80%
Post-emergence action against DIGSA in % [14]: 80%
Post-emergence action against ECHCG in % ([15]; dosage 80 g/ha): 80%
Post-emergence action against ECHCG in % ([15]; dosage 320 g/ha): 90%
Post-emergence action against LOLRI in % (Lolium rigidum (LOLRI) [16]): 80%
Post-emergence action against MATIN in % [17]: 80%
Post-emergence action against PHBPU in % ([18]; dosage 80 g/ha): 80%
Post-emergence action against PHBPU in % ([18]; dosage 320 g/ha): 80%
Post-emergence action against SETVI in % (Setaria viridis (SETVI) [19]): 80%
Post-emergence action against VIOTR in % (Viola tricolor (VIOTR) [20]): 80%
